The source made the active and inactive calls. The calls are words filed in the database; no cut-off is given here.
Legend:
[1] = tested on: Mus musculus; assay: Effect on Gadd45a mRNA level in liver of diet-induced obese C57BL/6 mouse model harboring AMPKalpha LS-/- at 200 mg/kg, po for 4 weeks by GO analysis; assay type: functional, organism-based
[2] = Stability in human Caco-2 cells assessed as compound remaining at 10 ug/ml measured after 2 hrs by LC-MS/MS analysis; assay type: ADME, cell-based; settings: at 10 µg/mL, read-out: Stability
[3] = tested on: Syrian golden hamster; assay: Lipid lowering effect on high-fat diet-fed golden hamster assessed as decrease in serum TG level administered orally once daily via gavage measured after 4 weeks measured after 4 weeks; assay type: functional, organism-based; settings: Mesocricetus auratus, dose 50-200 mg/kg, route po
[4] = AUC (0 to t) in male Rhesus monkey at 70 mg/kg, po or 7 mg/kg, iv measured for 36 hrs by LC-tandem MS analysis; assay type: ADME, organism-based, Macaca mulatta; settings: in vivo
[5] = tested on: Mus musculus; assay: Downregulation of Hspa5 mRNA level in liver of high-fat diet-fed C57BL/6 mouse model at 200 mg/kg, po for 4 weeks by GO analysis; assay type: functional, organism-based
[6] = tested on: Mus musculus; assay: Upregulation of Lepr mRNA level in liver of high-fat diet-fed C57BL/6 mouse model at 200 mg/kg, po for 4 weeks by GO analysis; assay type: functional, organism-based
[7] = Efflux ratio of apparent permeability across basal to apical side over apical to basal side in human Caco-2 cells at 2 uM incubated for 2 hrs by LC-MS/MS analysis; assay type: ADME, cell-based
[8] = tested on: Mus musculus; assay: Lipid lowering effect on high-fat diet-fed C57BL/6J mouse assessed as decrease in serum LDL-C level at 20 mg/kg/day, po administered via gavage measured after 7 days relative to control; assay type: functional; parameters: scale not given: the % may be the effect or the level left; settings: time 7 day
[9] = tested on: Syrian golden hamster; assay: Lipid lowering effect on high-fat diet-fed golden hamster assessed as decrease in serum LDL-C level at 50 mg/kg, po qd administered via gavage measured after 4 weeks relative to control; assay type: functional, Mesocricetus auratus; parameters: scale not given: the % may be the effect or the level left
[10] = tested on: Syrian golden hamster; assay: Lipid lowering effect on high-fat diet-fed golden hamster harboring LDLR-/- assessed as decrease in serum TC level at 200 mg/kg, po qd administered via gavage measured after 8 weeks relative to control; assay type: functional, Mesocricetus auratus; parameters: scale not given: the % may be the effect or the level left
[11] = tested on: Mus musculus; assay: Effect on Hspa5 mRNA level in liver of diet-induced obese C57BL/6 mouse model harboring AMPKalpha LS-/- at 200 mg/kg, po for 4 weeks by GO analysis; assay type: functional, organism-based
[12] = tested on: Mus musculus; assay: Effect on Gadd45b mRNA level in liver of diet-induced obese C57BL/6 mouse model harboring AMPKalpha LS-/- at 200 mg/kg, po for 4 weeks by GO analysis; assay type: functional, organism-based
[13] = tested on: Mus musculus; assay: Downregulation of Ptafr mRNA level in liver of high-fat diet-fed C57BL/6 mouse model at 200 mg/kg, po for 4 weeks by GO analysis; assay type: functional, organism-based
[14] = tested on: Mus musculus; assay: Downregulation of Mvd mRNA level in liver of high-fat diet-fed C57BL/6 mouse model at 200 mg/kg, po for 4 weeks by GO analysis; assay type: functional, organism-based
[15] = tested on: Mus musculus; assay: Downregulation of Syvn1 mRNA level in liver of high-fat diet-fed C57BL/6 mouse model at 200 mg/kg, po for 4 weeks by GO analysis; assay type: functional, organism-based
[16] = tested on: Mus musculus; assay: Effect on Sdf2l1 mRNA level in liver of diet-induced obese C57BL/6 mouse model harboring AMPKalpha LS-/- at 200 mg/kg, po for 4 weeks by GO analysis; assay type: functional, organism-based
[17] = molecular target: AMP-activated protein kinase (AMPK) alpha-1/beta-1/gamma-1 (Homo sapiens) (UniProt P54619+Q9Y478+Q13131); assay: Activation of AMPK alpha1/AMPKbeta1/AMPKgamma1 (unknown origin) using SAMS peptide as substrate at; assay type: protein-complex assay; settings: filed as activator, dose < 70.3 µM, time 20.0 min
Chain of AMP-activated protein kinase (AMPK) alpha-1/beta-1/gamma-1 (Homo sapiens) (P54619 whole entry): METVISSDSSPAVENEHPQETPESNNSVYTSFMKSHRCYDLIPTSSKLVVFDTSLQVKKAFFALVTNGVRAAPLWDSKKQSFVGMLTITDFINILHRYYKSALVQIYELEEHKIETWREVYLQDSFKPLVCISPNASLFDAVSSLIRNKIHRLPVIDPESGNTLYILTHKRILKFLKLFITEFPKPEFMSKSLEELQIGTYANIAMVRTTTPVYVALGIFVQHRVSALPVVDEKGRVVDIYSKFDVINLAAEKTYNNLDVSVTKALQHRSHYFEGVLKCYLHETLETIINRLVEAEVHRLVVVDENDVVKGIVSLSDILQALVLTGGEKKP
Chain of AMP-activated protein kinase (AMPK) alpha-1/beta-1/gamma-1 (Homo sapiens) (Q13131 whole entry partner): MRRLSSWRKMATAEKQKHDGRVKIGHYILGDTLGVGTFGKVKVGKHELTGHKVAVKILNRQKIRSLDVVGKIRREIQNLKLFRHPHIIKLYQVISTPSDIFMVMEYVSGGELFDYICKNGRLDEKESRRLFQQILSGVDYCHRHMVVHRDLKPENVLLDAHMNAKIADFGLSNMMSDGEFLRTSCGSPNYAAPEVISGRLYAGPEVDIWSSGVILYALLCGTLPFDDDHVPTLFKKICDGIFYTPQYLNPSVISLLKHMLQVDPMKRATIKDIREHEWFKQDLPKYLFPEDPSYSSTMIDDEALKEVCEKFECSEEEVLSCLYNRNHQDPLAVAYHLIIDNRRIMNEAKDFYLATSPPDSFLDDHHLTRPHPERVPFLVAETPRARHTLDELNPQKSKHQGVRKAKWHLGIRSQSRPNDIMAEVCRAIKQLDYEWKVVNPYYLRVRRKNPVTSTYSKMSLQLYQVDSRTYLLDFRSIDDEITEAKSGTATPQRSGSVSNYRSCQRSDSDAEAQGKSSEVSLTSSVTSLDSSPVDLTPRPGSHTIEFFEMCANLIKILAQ
Chain of AMP-activated protein kinase (AMPK) alpha-1/beta-1/gamma-1 (Homo sapiens) (Q9Y478 2-270 partner limits assumed): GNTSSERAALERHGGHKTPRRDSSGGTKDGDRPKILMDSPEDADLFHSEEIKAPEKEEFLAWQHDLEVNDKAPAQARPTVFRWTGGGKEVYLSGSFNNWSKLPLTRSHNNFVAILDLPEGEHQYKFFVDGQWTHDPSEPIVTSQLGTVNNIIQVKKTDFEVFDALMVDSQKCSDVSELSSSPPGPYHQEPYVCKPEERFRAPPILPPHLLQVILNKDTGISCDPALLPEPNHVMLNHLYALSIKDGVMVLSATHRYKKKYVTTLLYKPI

[18] = tested on: Mus musculus; assay: Effect on Mogat1 mRNA level in liver of diet-induced obese C57BL/6 mouse model harboring AMPKalpha LS-/- at 200 mg/kg, po for 4 weeks by GO analysis; assay type: functional, organism-based
[19] = tested on: Mus musculus; assay: Effect on Cidea mRNA level in liver of diet-induced obese C57BL/6 mouse model harboring AMPKalpha LS-/- at 200 mg/kg, po for 4 weeks by GO analysis; assay type: functional, organism-based
[20] = tested on: Mus musculus; assay: Downregulation of Dhcr7 mRNA level in liver of high-fat diet-fed C57BL/6 mouse model at 200 mg/kg, po for 4 weeks by GO analysis; assay type: functional, organism-based
[21] = tested on: Mus musculus; assay: Effect on Ctgf mRNA level in liver of diet-induced obese C57BL/6 mouse model harboring AMPKalpha LS-/- at 200 mg/kg, po for 4 weeks by GO analysis; assay type: functional, organism-based
[22] = tested on: Mus musculus; assay: Effect on Pparg mRNA level in liver of diet-induced obese C57BL/6 mouse model harboring AMPKalpha LS-/- at 200 mg/kg, po for 4 weeks by GO analysis; assay type: functional, organism-based
[23] = Stability in human liver microsomes assessed as hepatic clearance at 1 uM measured for 60 mins in presence of NADPH by LC-MS/MS analysis; assay type: ADME, Microsome

Question: With `CC(=O)OC[C@H]1O[C@@H](n2cnc3c(Nc4cccc(O)c4)ncnc32)[C@H](OC(C)=O)[C@@H]1OC(C)=O` as the compound, how does the Activity [1] read?
Answer: inactive

Question: And the remaining at 2 h, 10 ug/ml [2]?
Answer: 63%

Question: What about the Activity [3] of the same compound?
Answer: Dose-Dependent Effect

Question: What about the AUC(0-t) at 36 h [4] of the same compound?
Answer: 109 ng·h/mL

Question: What about the Activity [5] of the same compound?
Answer: Active

Question: And the Activity [6]?
Answer: Active

Question: What about the efflux ratio at 2 h, 2 µM [7] of the same compound?
Answer: 2.1

Question: What about the Activity [8] of the same compound?
Answer: 22.2%

Question: What about the Activity [9] of the same compound?
Answer: 10.5%

Question: And the Activity [10]?
Answer: 19%

Question: What about the Activity [11] of the same compound?
Answer: inactive

Question: What about the Activity [12] of the same compound?
Answer: inactive

Question: And the Activity [13]?
Answer: Active

Question: And the Activity [14]?
Answer: Active

Question: What about the Activity [15] of the same compound?
Answer: Active

Question: What about the Activity [16] of the same compound?
Answer: inactive

Question: What about the Activity [17] of the same compound?
Answer: Active

Question: What about the Activity [18] of the same compound?
Answer: inactive

Question: What about the Activity [19] of the same compound?
Answer: inactive

Question: What about the Activity [20] of the same compound?
Answer: Active

Question: What about the Activity [21] of the same compound?
Answer: inactive

Question: And the Activity [22]?
Answer: inactive

Question: And the CLhep predicted at 1 µM [23]?
Answer: 19.9 mL/min/kg
